Experiments:
[1] = tested on: melanoma A375 tumors; settings: melanoma A375 tumors implanted into the left ventricle of the heart; cited from earlier work
[2] = tested on: HCV; assay: Viral load in HCV patients on regimens of compound of Formula Ia (reverse transcriptase PCR, FIG. 1); assay type: in vivo, human; settings: Patients with HCV, 200 mg BID, 400 mg BID, 400 mg TID
Text: FIG. 1 is a graph of mean viral load measured over time with administration of various doses and regimens of compound of Formula Ia; and
Studies of viral activity in HCV infected patients indicate that viral activity and resulting viral load are influenced by the circadian rhythm of the patient. […] Thus, in one aspect of the invention, the one or more discrete dosages are adjusted in amount to provide a highest dose or doses at a time or times corresponding to the time interval when hepatitis-C virus replication is highest.
Patients with HCV were put on various treatment regimens including 200 mg. BID, 400 mg. BID, and 400 mg. TID of a compound of Formula Ia, to determine efficacy of the regimens in reducing viral load. Blood samples were taken at predose and at 0.25, 0.5, 0.75, 1, 1.5, 2, 3, 4, 5, 6, 8, 10, 12, 18, 24, 36, 48, 72, 144 hr post dose using reverse transcriptase PCR methods.

[3] = Serum levels of compound Ia on day 14 in healthy subjects, BID vs TID regimen (FIG. 2); assay type: in vivo, human; settings: 400 mg TID; for serum/plasma level before the morning dose (time zero), 8 hours after the previous dose: healthy subjects, compared with 8 hours after the morning dose
Protocol: Healthy subjects were put on one of two regimens of 400 mg BID or 400 mg. TID of a compound of Formula Ia. Blood samples were taken on day 14 immediately prior to the morning dose (time zero) and at 12 hours post-dose (for the BID regimen) or 8 hours post-dose (for the TID regimen).

SMILES | distant bone metastasis to the femur and tibia [1] | pattern of viral load decline over time [2] | pattern of viral load decline over time ([2]; listed as Formula la) | viral load as measured in serum ([2]; predose to 144 hr post dose) | plasma level 8 hours after the morning dose ([3]; compared with level before the morning dose) | serum/plasma level before the morning dose (time zero), 8 hours after the previous dose [3] | serum/plasma level before the morning dose (time zero), 8 hours after the previous dose ([3]; listed as formula la)
CN(C)C(=O)[C@H](Cc1ccccc1)NC(=O)[C@H]1O[C@@H]1C(=O)NCCc1ccccn1 [CLIK-148] | reduced distant bone metastasis | – | – | – | – | – | –
CC(C)(C)NC(=O)N[C@H](C(=O)N1C[C@H]2[C@@H]([C@H]1C(=O)NC(CC1CCC1)C(=O)C(N)=O)C2(C)C)C(C)(C)C (stereo partly drawn) [Formula Ia, (1R,5S)-N-[3-Amino-1-(Cyclobutylmethyl)-2,3-Dioxopropyl]-3-[2(S)-[[[(1,1-Dimethylethyl)Amino]Carbonyl]Amino]-3,3-Dimethyl-1-Oxobutyl]-6,6-Dimethyl-3-Azabicyclo[3.1.0]Hexan-2(S)-Carboxamide] | – | exhibited cyclical fluctuations corresponding to the patients' sleep/wake cycles | the decline in viral load is cyclical | declined with all regimens | much lower | significantly higher at time zero | highest in the morning

Source: patent US20060287248A1, “Asymmetric dosing methods” (Schering Corporation, priority 2005, published 2006)
